Values of other authors in EP4398053A1, “CONTROL METHOD FOR […] OF A DYNAMIC SYSTEM AND […]” (Universidade de Aveiro, priority 2023, dated 2024).

Conditions: drug elimination within the body; drug-specific model parameter

Compound: O=P1(N(CCCl)CCCl)NCCCO1 (stereo not shown) [Cyclophosphamide]
- drug elimination rate λ: 4.16 day⁻¹
